According to US4259235A, “Tricyclic nitrogenous compounds having string plant growth regulating properties” (BASF Aktiengesellschaft, priority 1977, dated 1981):
Where two headings read alike, the source gives them in different places.

What was measured:
Arachys hypogaea = test: Shoot growth, postemergence treatment in the greenhouse (table 25); type: in vivo
Procedure: (§1) Plastic flowerpots having a volume of 300 cm^3 were filled with a sandy loam and the test plants placed therein (either as seed, as vegetatively reproduced species, or as potted plants, e.g., vines). For preemergence treatment, the active ingredients were suspended or emulsified in water as vehicle and sprayed onto the surface of the soil immediately after sowing by means of finely distributing nozzles. The potted vines were treated by spraying them with the correspondingly diluted liquor. For postemergence treatment, the agents were, as stated above, sprayed in water onto the leaves of the test plants, some liquor also falling onto the soil. In some special cases, solid active ingredients were first dissolved in dimethylformamide and then applied in a total liquor amount of 400 liters of water per hectare. For the postemergence treatment, the plants were first grown to a height of from 3 to 10 cm before being treated. With grasses, the first growth was cut, and the new growth treated 2 to 3 days after cutting. The temperature requirements of the plants were taken into account by placing them in cooler or warmer sections of the greenhouse. The experiments were run for from 4 to 6 weeks, during which time the plants were tended and their reaction to the various treatments was assessed.
(§2) The application rates are given in kg/ha of active ingredient, regardless of the method of application and the amount of water used.
(§3) A 0 to 100 scale was used for the evaluation, 0 denoting normal emergence or no damage (or no inhibition), and 100 denoting non-emergence or complete destruction of the plants. A distinction should be made in the influence on growth between desired changes without any appreciable disadvantageous phytotoxic effects (e.g., purely growth-regulating effects) and those of a phytotoxic herbicical character.

Poa pratensis = test: as above; type: in vivo
Procedure: as §1, §2, §3

Oryza sativa = test: as above; type: in vivo
Procedure: as §1, §2, §3

Hordeum vulgare = test: Shoot growth, postemergence treatment in the greenhouse (table 26); type: in vivo
Procedure: as §1, §2, §3

Euphorbia geniculata [1] = test: as above; type: in vivo
Procedure: as §1, §2, §3

Cynodon dactylon = test: as above; type: in vivo; conditions: from seed
Procedure: as §1, §2, §3

Medicago sativa = test: Inhibition of shoot growth by growth regulators, pre- and postemergence (table 27); type: in vivo; conditions: post-emergence, read-out: shoot growth inhibition (%)
Procedure: as §1, §2, §3

Euphorbia geniculata [2] = test: as above; type: in vivo; conditions: Euphorbia heterophylla, post-emergence, read-out: shoot growth inhibition (%)
Procedure: as §1, §2, §3

Hordeum vulg. = test: Shoot inhibition, pre- and postemergence treatment (table 28); type: in vivo, Hordeum vulgare; conditions: post-emergence, read-out: % shoot inhibition
Procedure: as §1, §2, §3

Cynodon dactyl. = test: as above; type: in vivo, Cynodon dactylon; conditions: post-emergence, from seed, read-out: % shoot inhibition
Procedure: as §1, §2, §3

Glycine max = test: as above; type: in vivo; conditions: post-emergence, read-out: % shoot inhibition; for inhibition at 1000 g/ha: 1.0 kg/ha PRE; for inhibition at 2000 g/ha: 2.0 kg/ha PRE
Procedure: as §1, §2, §3

Poa prat. = test: as above; type: in vivo; conditions: Poa pratensis, post-emergence, read-out: % shoot inhibition
Procedure: as §1, §2, §3

Tritic. aestiv. = test: as above; type: in vivo; conditions: post-emergence, read-out: % shoot inhibition
Procedure: as §1, §2, §3

Arachys hypog. = test: as above; type: in vivo, Arachys hypogaea; conditions: post-emergence, read-out: % shoot inhibition
Procedure: as §1, §2, §3

Euphorbia genic. = test: as above; type: in vivo, Euphorbia geniculata; conditions: post-emergence, read-out: % shoot inhibition; for inhibition at 1000 g/ha: 1.0 kg/ha PRE; for inhibition at 2000 g/ha: 2.0 kg/ha PRE
Procedure: as §1, §2, §3

Galium apar. = test: Herbicidal action, pre- and postemergence application in the greenhouse; type: in vivo, Galium aparine; conditions: post-emergence, 3.0 kg/ha POST, read-out: % damage
Procedure: as §1, §2, §3

Sinapis alba = test: as above; type: in vivo; conditions: post-emergence, 3.0 kg/ha PRE, read-out: % damage
Procedure: as §1, §2, §3

Lolium mult. = test: as above; type: in vivo; conditions: Lolium, post-emergence, read-out: % damage
Procedure: as §1, §2, §3

Mentha piper. = test: as above; type: in vivo; conditions: post-emergence; 3.0 kg/ha POST; read-out: % damage
Procedure: as §1, §2, §3

Ipom. spp. = test: as above; type: in vivo, Ipomoea spp.; conditions: Ipomoea, post-emergence; 3.0 kg/ha POST; read-out: % damage
Procedure: as §1, §2, §3

Cynodon dact. (seed) = test: as above; type: in vivo, Cynodon dactylon; conditions: appln. rate 2 kg/ha, POST line
Procedure: as §1, §2, §3

## C1C2C3N=NC3C1C1OC21 (stereo not drawn) [drawing 433]
Arachys hypogaea; 1.0 kg/ha
  Shoot length: 10 cm
Arachys hypogaea; 2.0 kg/ha
  Shoot length: 10 cm
Arachys hypogaea; 4.0 kg/ha
  Shoot length: 10 cm
Poa pratensis; 1.0, 2.0 and 4.0 kg/ha
  Leaf scorch (footnote x): limited leaf scorch
Poa pratensis; 1.0 kg/ha
  Shoot length: 2 cm
Poa pratensis; 2.0 kg/ha
  Shoot length: 2 cm
Poa pratensis; 4.0 kg/ha
  Shoot length: 2 cm
Oryza sativa; 1.0 kg/ha
  Shoot length: 16 cm
Oryza sativa; 2.0 kg/ha
  Shoot length: 16 cm
Oryza sativa; 4.0 kg/ha
  Shoot length: 16 cm

## Clc1ccc(NC2C(Cl)C3CC2C2N=NC32)cc1 (stereo not drawn) [drawing 435]
Hordeum vulgare; 0.5 kg/ha
  Shoot length: 12.5 cm
Hordeum vulgare; 1.0 kg/ha
  Shoot length: 12 cm
Hordeum vulgare; 2.0 kg/ha
  Shoot length: 12 cm
Euphorbia geniculata [1]; 0.5 kg/ha
  Shoot length: 9 cm
Euphorbia geniculata [1]; 1.0 kg/ha
  Shoot length: 9 cm
Euphorbia geniculata [1]; 2.0 kg/ha
  Shoot length: 9 cm
Cynodon dactylon; 1.0 kg/ha
  Shoot length: 5 cm
Cynodon dactylon; 2.0 kg/ha
  Shoot length: 5 cm

## c1ccc(C2=NOC3C4CC(C5N=NC45)C23)cc1 (stereo not drawn) [drawing 437]
Medicago sativa; 2.0 kg/ha POST
  inhibition at 2000 g/ha: 20%
Medicago sativa; 4.0 kg/ha POST
  inhibition at 4000 g/ha: 20%
Euphorbia geniculata [2]; 0.5 kg/ha PRE
  inhibition at 500 g/ha: 33%
Euphorbia geniculata [2]; 1.0 kg/ha PRE
  inhibition at 1000 g/ha: 40%
Euphorbia geniculata [2]; 2.0 kg/ha POST
  inhibition at 2000 g/ha: 30%
Euphorbia geniculata [2]; 4.0 kg/ha POST
  inhibition at 4000 g/ha: 30%

## c1ccc(C2=NNC3C4CC(C5N=NC45)C23)cc1 (stereo not drawn) [drawing 438]
Hordeum vulg.; 1.0 kg/ha POST
  inhibition at 1000 g/ha: 30%
Hordeum vulg.; 1.0 kg/ha PRE
  inhibition at 1000 g/ha: 25%
Hordeum vulg.; 2.0 kg/ha POST
  inhibition at 2000 g/ha: 30%
Hordeum vulg.; 2.0 kg/ha PRE
  inhibition at 2000 g/ha: 25%
Cynodon dactyl.; 1.0 kg/ha POST
  inhibition at 1000 g/ha: 13%
Cynodon dactyl.; 1.0 kg/ha PRE
  inhibition at 1000 g/ha: 10%
Cynodon dactyl.; 2.0 kg/ha POST
  inhibition at 2000 g/ha: 25%
Cynodon dactyl.; 2.0 kg/ha PRE
  inhibition at 2000 g/ha: 10%
Glycine max
  inhibition at 1000 g/ha: 10%
  inhibition at 2000 g/ha: 25%
Poa prat.; 1.0 kg/ha PRE
  inhibition at 1000 g/ha: 60%
Poa prat.; 2.0 kg/ha PRE
  inhibition at 2000 g/ha: 60%
Tritic. aestiv.; 1.0 kg/ha POST
  inhibition at 1000 g/ha: 10%
Tritic. aestiv.; 1.0 kg/ha PRE
  inhibition at 1000 g/ha: 30%
Tritic. aestiv.; 2.0 kg/ha POST
  inhibition at 2000 g/ha: 20%
Tritic. aestiv.; 2.0 kg/ha PRE
  inhibition at 2000 g/ha: 30%
Arachys hypog.; 1.0 kg/ha POST
  inhibition at 1000 g/ha: 20%
Arachys hypog.; 1.0 kg/ha PRE
  inhibition at 1000 g/ha: 10%
Arachys hypog.; 2.0 kg/ha POST
  inhibition at 2000 g/ha: 30%
Arachys hypog.; 2.0 kg/ha PRE
  inhibition at 2000 g/ha: 10%
Euphorbia genic.
  inhibition at 1000 g/ha: 10%
  inhibition at 2000 g/ha: 30%

## CN(C)NC(=O)CCC(=O)O [drawing 439]
Cynodon dactyl.; 1.0 kg/ha POST
  inhibition at 1000 g/ha: 20%
Cynodon dactyl.; 2.0 kg/ha POST
  inhibition at 2000 g/ha: 20%
Glycine max
  inhibition at 1000 g/ha: 0%
  inhibition at 2000 g/ha: 0%
Arachys hypog.; 1.0 kg/ha POST
  inhibition at 1000 g/ha: 30%
Arachys hypog.; 1.0 kg/ha PRE
  inhibition at 1000 g/ha: 50%
Arachys hypog.; 2.0 kg/ha POST
  inhibition at 2000 g/ha: 30%
Arachys hypog.; 2.0 kg/ha PRE
  inhibition at 2000 g/ha: 50%
Euphorbia genic.
  inhibition at 1000 g/ha: 0%
  inhibition at 2000 g/ha: 0%

## C1C2C3N=NC3C1C1OC21 (stereo not drawn) [drawing 445]
Galium apar.
  pest or weed control at 3000 g/ha: 60%
Sinapis alba
  pest or weed control at 3000 g/ha: 90%
Lolium mult.; 3.0 kg/ha POST
  pest or weed control at 3000 g/ha: 100%
Lolium mult.; 3.0 kg/ha PRE
  pest or weed control at 3000 g/ha: 95%
Mentha piper.
  pest or weed control at 3000 g/ha: 100%
Ipom. spp.
  pest or weed control at 3000 g/ha: 100%

## c1ccc(C2=NOC3C4CC(C5N=NC45)C23)cc1 (stereo not drawn) [drawing 453]
Galium apar.
  pest or weed control at 3000 g/ha: 95%
Sinapis alba
  pest or weed control at 3000 g/ha: 90%
Lolium mult.; 3.0 kg/ha POST
  pest or weed control at 3000 g/ha: 100%
Lolium mult.; 3.0 kg/ha PRE
  pest or weed control at 3000 g/ha: 100%
Mentha piper.
  pest or weed control at 3000 g/ha: 75%
Cynodon dact. (seed)
  % damage: 100%
Ipom. spp.
  pest or weed control at 3000 g/ha: 100%
